Laboratory results: patent US10829520B2, “Beta-hairpin peptidomimetics” (POLYPHOR AG, priority 2015, dated 2020)
Where a SMILES comes first, the peptide text is derived from it. Bridges are numbered along the chain shown (N, C = ends). Roman numbers before positions name the chains, in order. [ ]: non-standard residue; d: D form. Tle = CC(C)(C)[C@H](N)C(=O)O; dDab = NCC[C@@H](N)C(=O)O; Nle = CCCC[C@H](N)C(=O)O; Orn = NCCC[C@H](N)C(=O)O; Dab = NCC[C@H](N)C(=O)O

How the values were obtained:
Assay type in all cases: cell-based
[1] = system: human red blood cells (hRBC); experiment: Hemolysis of human red blood cells; conditions: red cells of human, 1 h
Procedure, shortened: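 Hemolysis was read as supernatant absorbance at 540 nm and expressed as a percentage of Triton X-100 (2.5%) lysis. Washed human red cells (20% v/v) had been exposed to each peptide at 100 μg/mL for 1 h at 37° C.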

[2] = system: Escherichia coli 926415; conditions: 926415
[3] = system: Klebsiella pneumoniae 968733; conditions: 968733
[4] = system: Acinetobacter baumannii DSM 30008; conditions: DSM 30008
Procedure, shortened: (§1)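 CLSI broth microdilution in cation-adjusted Mueller-Hinton II broth with 0.002% Polysorbate 80, inoculum appr. 10^6 CFU/mL, peptides in serial two-fold dilutions. MIC (μg/mL) is the lowest concentration with no visible growth after 18-20 hours at 35° C.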

[5] = system: Acinetobacter baumannii 872842; conditions: 872842
[6] = system: Klebsiella pneumoniae SSI #3010; conditions: SSI #3010
Procedure, shortened: as §1

[7] = system: Escherichia coli ATCC 25922; conditions: ATCC 25922
Procedure, shortened: as §1

[8] = system: Pseudomonas aeruginosa ATCC 27853; conditions: ATCC 27853
Procedure, shortened: as §1

SMILES | Hemolysis at 100 μg/mL ([1]; 100 μg/mL) | Escherichia coli 926415 MIC [2] | Klebsiella pneumoniae 968733 MIC [3] | Acinetobacter baumannii DSM 30008 MIC [4] | Acinetobacter baumannii 872842 MIC [5] | Klebsiella pneumoniae SSI #3010 MIC [6] | Escherichia coli ATCC 25922 MIC [7] | Pseudomonas aeruginosa ATCC 27853 MIC [8] | Hemolysis at 100 μg/mL [1]; 100
CCCC[C@@H]1NC(=O)[C@@H]2CCCN2C(=O)[C@H]2CCCN2C(=O)[C@H](CO)NC(=O)[C@H](CO)NC(=O)[C@H](C(C)(C)C)NC(=O)[C@H](CCN)NC(=O)[C@H](Cc2c[nH]c3ccccc23)NC(=O)[C@@H](N)CSSC[C@@H](C(=O)N[C@@H](C(=O)N[C@H](CCN)C(=O)N[C@H]2CCNC(=O)[C@H]([C@@H](C)O)NC(=O)[C@H](CCN)NC(=O)[C@H](CCN)NC(=O)[C@H](CC(C)C)NC(=O)[C@@H](Cc3ccccc3)NC(=O)[C@H](CCN)NC2=O)[C@H](C)O)NC(=O)[C@H](CCCN)NC(=O)[C@H](CCN)NC(=O)[C@H](Cc2ccc(O)cc2)NC(=O)[C@H](CO)NC1=O [Ex. 204] (H-CW[Dab][Tle]SS[dP]P[Nle]SY[Dab][Orn]C[dT][dDab][Dab][Dab][dF]L[Dab][Dab]T; disulfide 1-14; lactam 17-C) | 3% | 0.125 µg/mL | 0.5 µg/mL | 0.5 µg/mL | 0.25 µg/mL | 0.25 µg/mL | 0.25 µg/mL | 0.5 µg/mL | –
CCCC[C@@H]1NC(=O)[C@@H]2CCCN2C(=O)[C@H]2CCCN2C(=O)[C@H](CO)NC(=O)[C@H](CO)NC(=O)[C@H](C(C)(C)C)NC(=O)[C@@H](NC(=O)[C@@H](N)Cc2c[nH]c3ccccc23)CSSC[C@@H](C(=O)N[C@H](CCN)C(=O)N[C@@H](CCN)C(=O)N[C@H](CCN)C(=O)N[C@H]2CCNC(=O)[C@H]([C@@H](C)O)NC(=O)[C@H](CCN)NC(=O)[C@H](CCN)NC(=O)[C@H](CC(C)C)NC(=O)[C@@H](Cc3ccccc3)NC(=O)[C@H](CCN)NC2=O)NC(=O)[C@H](Cc2ccc(O)cc2)NC(=O)[C@H](CO)NC1=O [Ex. 106] (H-WC[Tle]SS[dP]P[Nle]SYC[dDab][Dab][dDab][Dab][Dab][dF]L[Dab][Dab]T; disulfide 2-11; lactam 15-C) | 1% | 0.125 µg/mL | 0.5 µg/mL | 0.25 µg/mL | 0.125 µg/mL | 0.125 µg/mL | 0.125 µg/mL | 0.25 µg/mL | –
CCCC[C@@H]1NC(=O)[C@@H]2CCCN2C(=O)[C@H]2CCCN2C(=O)[C@H](CO)NC(=O)[C@H](C)NC(=O)[C@H](C(C)(C)C)NC(=O)[C@@H](NC(=O)[C@H](Cc2c[nH]c3ccccc23)NC(C)=O)CSSC[C@@H](C(=O)N[C@@H](CCCN)C(=O)N[C@H](CCN)C(=O)N[C@H]2CCNC(=O)[C@H]([C@@H](C)O)NC(=O)[C@H](CCN)NC(=O)[C@H](CCN)NC(=O)[C@H](CC(C)C)NC(=O)[C@@H](Cc3ccccc3)NC(=O)[C@H](CCN)NC2=O)NC(=O)[C@H](Cc2ccc(O)cc2)NC(=O)[C@H](CO)NC1=O [Ex. 49] (Ac-WC[Tle]AS[dP]P[Nle]SYC[Orn][dDab][Dab][Dab][dF]L[Dab][Dab]T; disulfide 2-11; lactam 14-C) | <1% | 0.5 µg/mL | 1 µg/mL | 0.25 µg/mL | 1 µg/mL | 0.5 µg/mL | 0.25 µg/mL | 1 µg/mL | –
CCCC[C@@H]1NC(=O)[C@@H]2CCCN2C(=O)[C@H]2CCCN2C(=O)[C@H](CO)NC(=O)[C@H]([C@@H](C)O)NC(=O)[C@H](C(C)(C)C)NC(=O)[C@@H](NC(=O)[C@H](Cc2c[nH]c3ccccc23)NC(C)=O)CSSC[C@@H](C(=O)N[C@@H](CCCN)C(=O)N[C@@H](CCN)C(=O)N[C@H]2CCNC(=O)[C@H]([C@@H](C)O)NC(=O)[C@H](CCN)NC(=O)[C@H](CCN)NC(=O)[C@H](CC(C)C)NC(=O)[C@@H](Cc3ccccc3)NC(=O)[C@H](CCN)NC2=O)NC(=O)[C@H](Cc2ccc(O)cc2)NC(=O)[C@H](CO)NC1=O [Ex. 47] (Ac-WC[Tle]TS[dP]P[Nle]SYC[Orn][Dab][Dab][Dab][dF]L[Dab][Dab]T; disulfide 2-11; lactam 14-C) | 1% | 0.5 µg/mL | 1 µg/mL | 0.25 µg/mL | 0.5 µg/mL | 0.5 µg/mL | 0.25 µg/mL | 0.5 µg/mL | –
CC(C)C[C@@H]1NC(=O)[C@@H](CC(C)C)NC(=O)[C@H](CCN)NC(=O)[C@@H](NC(=O)[C@H](CCN)NC(=O)[C@@H](NC(=O)[C@H](CCN)NC(=O)CC[C@@H]2NC(=O)[C@H](CCN)NC(=O)[C@H](Cc3ccc(O)cc3)NC(=O)[C@H]([C@@H](C)O)NC(=O)[C@H](CC(C)C)NC(=O)[C@@H]3CCCN3C(=O)[C@H]3CCCN3C(=O)[C@H](CO)NC(=O)[C@H]([C@@H](C)O)NC(=O)[C@H](C(C)C)NC(=O)[C@H](CCN)NC(=O)[C@H](Cc3c[nH]c4ccccc34)NC(=O)[C@H](CCN)NC(=O)[C@@H](CCN)NC2=O)[C@@H](C)O)CCNC(=O)[C@H]([C@@H](C)O)NC(=O)[C@H](CCN)NC(=O)[C@H](CCN)NC1=O [Ex. 91] (I: cyclo(LTY[Dab]E[dDab][Dab]W[Dab]VTS[dP]P) / II: [Dab]T[Dab][Dab][Dab][dL]L[Dab][Dab]T; amide I:5-II:N; lactam II:4-II:C) | – | 0.5 µg/mL | 1 µg/mL | 0.25 µg/mL | 0.5 µg/mL | 0.125 µg/mL | 0.125 µg/mL | 0.5 µg/mL | 1%
CC(C)C[C@@H]1NC(=O)[C@@H](CC(C)C)NC(=O)[C@H](CCN)NC(=O)[C@@H](NC(=O)[C@H](CCN)NC(=O)[C@@H](NC(=O)[C@H](CCN)NC(=O)CC[C@@H]2NC(=O)[C@H](CCN)NC(=O)[C@H](Cc3ccc(O)cc3)NC(=O)[C@H](CO)NC(=O)[C@H](CC(C)C)NC(=O)[C@@H]3CCCN3C(=O)[C@H]3CCCN3C(=O)[C@H](CO)NC(=O)[C@H]([C@@H](C)O)NC(=O)[C@H](C(C)C)NC(=O)[C@H](CCN)NC(=O)[C@H](Cc3c[nH]c4ccccc34)NC(=O)[C@H](CCN)NC(=O)[C@@H](CCN)NC2=O)[C@@H](C)O)CCNC(=O)[C@H]([C@@H](C)O)NC(=O)[C@H](CCN)NC(=O)[C@H](CCN)NC1=O [Ex. 92] (I: cyclo(W[Dab]VTS[dP]PLSY[Dab]E[dDab][Dab]) / II: [Dab]T[Dab][Dab][Dab][dL]L[Dab][Dab]T; amide I:12-II:N; lactam II:4-II:C) | – | 0.5 µg/mL | 0.5 µg/mL | 0.25 µg/mL | 0.5 µg/mL | 0.25 µg/mL | 0.125 µg/mL | 0.25 µg/mL | 1%
CC(C)C[C@@H]1NC(=O)[C@H](CO)NC(=O)[C@H](CC(C)C)NC(=O)[C@@H]2CCCN2C(=O)[C@H]2CCCN2C(=O)[C@H]([C@@H](C)O)NC(=O)[C@H](C)NC(=O)[C@H](C(C)C)NC(=O)[C@@H](NC(=O)[C@@H](N)CC(C)C)CSSC[C@@H](C(=O)NCC(=O)N[C@@H](CCN)C(=O)N[C@H](C(=O)N[C@@H](CCN)C(=O)N[C@H]2CCNC(=O)[C@H]([C@@H](C)O)NC(=O)[C@H](CCN)NC(=O)[C@H](CCN)NC(=O)[C@H](CC(C)C)NC(=O)[C@@H](CC(C)C)NC(=O)[C@H](CCN)NC2=O)[C@@H](C)O)NC1=O [Ex. 154] (H-LCVAT[dP]PLSLCG[Dab]T[Dab][Dab][Dab][dL]L[Dab][Dab]T; disulfide 2-11; lactam 16-C) | <1% | 0.125 µg/mL | 0.25 µg/mL | 0.0625 µg/mL | 0.03125 µg/mL | 0.0625 µg/mL | 0.0625 µg/mL | 1 µg/mL | –
CCCC[C@@H]1NC(=O)[C@@H]2CCCN2C(=O)[C@H]2CCCN2C(=O)[C@H](CO)NC(=O)[C@H](C)NC(=O)[C@H](C(C)(C)C)NC(=O)[C@H](CCN)NC(=O)[C@H](Cc2c[nH]c3ccccc23)NC(=O)[C@H](CCC(=O)N[C@@H](CCN)C(=O)N[C@H](C(=O)N[C@@H](CCN)C(=O)N[C@H]2CCNC(=O)[C@H]([C@@H](C)O)NC(=O)[C@H](CCN)NC(=O)[C@H](CCN)NC(=O)[C@H](CC(C)C)NC(=O)[C@@H](Cc3ccccc3)NC(=O)[C@H](CCN)NC2=O)[C@@H](C)O)NC(=O)[C@@H](CCN)NC(=O)[C@H](CCCN)NC(=O)[C@H](CCN)NC(=O)[C@H](Cc2ccc(O)cc2)NC(=O)[C@H](CO)NC1=O [Ex. 10] (I: cyclo([Nle]SY[Dab][Orn][dDab]EW[Dab][Tle]AS[dP]P) / II: [Dab]T[Dab][Dab][Dab][dF]L[Dab][Dab]T; amide I:7-II:N; lactam II:4-II:C) | – | 0.5 µg/mL | 2 µg/mL | 1 µg/mL | 1 µg/mL | 0.25 µg/mL | 0.125 µg/mL | 0.5 µg/mL | 1%
